Columns and labels:
MAT2A = target: T1, MAT2A (Homo sapiens, UniProt P31153); experiment: MAT2A inhibitory activity, colorimetric phosphate detection (PiColorLock) enzyme assay; format: biochemical; settings: Test Condition 1 or 2 (not stated which per compound); absorbance at 630 nm
T1 construct: purchased BPS Bioscience (USA) 71401
Procedure, shortened: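 Compound preincubated 30 min at room temperature with enzyme, then reacted 1 h with ATP and Met; phosphate read colorimetrically at 630 nm. Condition 1: top 50 µM, 12 ng/µL enzyme, 100 µM ATP, 80 µM Met. Condition 2: top 1 µM, 4 ng/µL enzyme, 300 µM ATP, 150 µM Met. Tris pH 8.0 buffer; IC50 by 4-parameter fit.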

[1] = tested on: HCT116 (MTAP del) cell line; experiment: Cell proliferation inhibition in MTAP-deficient cancer cells, WST-1 assay; format: cell-based; settings: Homo sapiens, HCT-116, 120 hours of drug treatment, maximum concentration 10 µM, read-out: HCT116 MTAP^-/- (IC50, cell proliferation inhibited by 50%)
Procedure, shortened: (§1)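 HCT116 MTAP-deleted and isogenic MTAP wild-type cells (1,000 cells/well, 10% FBS RPMI1640) attached 24 h, then treated with 4-fold dilutions from 10 µM for 120 hours. WST-1 added 2 hours, absorbance at 450 nm, normalized to DMSO control as 100%; IC50 from 4-parameter dose-response fit.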

[2] = tested on: HCT116 (MTAP WT) cell line; experiment: Cell proliferation inhibition in wild-type control cells, WST-1 assay; format: cell-based; settings: Homo sapiens, HCT-116, 120 hours of drug treatment, maximum concentration 10 µM, read-out: HCT116 WT (IC50, cell proliferation inhibited by 50%)
Procedure, shortened: as §1

T1 sequence (P31153 whole entry): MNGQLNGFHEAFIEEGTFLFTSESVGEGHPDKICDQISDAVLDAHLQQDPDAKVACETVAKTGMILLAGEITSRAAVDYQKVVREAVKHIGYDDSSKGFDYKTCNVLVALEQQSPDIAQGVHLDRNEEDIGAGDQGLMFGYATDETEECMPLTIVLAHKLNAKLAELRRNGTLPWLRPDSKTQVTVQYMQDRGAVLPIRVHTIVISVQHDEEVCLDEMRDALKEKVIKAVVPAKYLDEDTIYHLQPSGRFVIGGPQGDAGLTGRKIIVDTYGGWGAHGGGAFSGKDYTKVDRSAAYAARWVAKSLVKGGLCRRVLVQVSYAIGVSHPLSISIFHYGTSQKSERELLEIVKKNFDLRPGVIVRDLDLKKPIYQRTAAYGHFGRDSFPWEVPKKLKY

Work on `Cc1ncccc1-n1c(=O)c2ncc(C)n2c2ccc(C(F)(F)F)cc21` [Example 58, 1-methyl-5-(2-methylpyridin-3-yl)-7-(trifluoromethyl)imidazo[1,2-a]quinoxalin-4(5H)-one] yielded an IC50 (MAT2A) of 100 to 1000 nM, an IC50 [1] of 1 to 100 nM and an IC50 [2] of 100 to 1000 nM.

`CC(=O)c1nc2c(=O)n(-c3cccnc3C)c3cc(C(F)(F)F)ccc3n2c1O` [Example 60, 2-acetyl-1-hydroxy-5-(2-methylpyridin-3-yl)-7-(trifluoromethyl)imidazo[1,2-a]quinoxalin-4(5H)-one] gave an IC50 (MAT2A) of 100 to 1000 nM, an IC50 [1] greater than 10000 nM and an IC50 [2] greater than 10000 nM.

With `O=c1c2nccn2c2ccc(C(F)(F)F)cc2n1-c1cccc2c1CCO2` [Example 65, 5-(2,3-dihydrobenzofuran-4-yl)-7-(trifluoromethyl)imidazo[1,2-a]quinoxalin-4(5H)-one] the IC50 (MAT2A) was 1 to 100 nM, the IC50 [1] was 1 to 100 nM and the IC50 [2] was 1000 to 10000 nM.

For `Cc1ccccc1-n1c(=O)c2nccn2c2c(F)cc(Cl)cc21` [Example 71, 7-chloro-9-fluoro-5-(o-tolyl)imidazo[1,2-a]quinoxalin-4(5H)-one], the IC50 (MAT2A) was 1000 to 10000 nM, the IC50 [1] was greater than 10000 nM and the IC50 [2] was greater than 10000 nM.

`Cc1cc2c(cc1Cl)n(-c1ccccc1C)c(=O)c1nccn12` [Example 73, 7-chloro-8-methyl-5-(o-tolyl)imidazo[1,2-a]quinoxalin-4(5H)-one] showed an IC50 (MAT2A) of 100 to 1000 nM, an IC50 [1] of 100 to 1000 nM and an IC50 [2] greater than 10000 nM.

Work on `COc1cc2c(cc1Br)n(-c1ccccc1C)c(=O)c1nccn12` [Example 74, 7-bromo-8-methoxy-5-(o-tolyl)imidazo[1,2-a]quinoxalin-4(5H)-one] yielded an IC50 (MAT2A) of 100 to 1000 nM, an IC50 [1] of 100 to 1000 nM and an IC50 [2] greater than 10000 nM.

For `COc1cc2c(cc1Br)n(-c1cccnc1C)c(=O)c1nccn12` [Example 75, 7-bromo-8-methoxy-5-(2-methylpyridin-3-yl)imidazo[1,2-a]quinoxalin-4(5H)-one], the IC50 (MAT2A) was 100 to 1000 nM, the IC50 [1] was 100 to 1000 nM and the IC50 [2] was greater than 10000 nM.

Work on `Cc1ncccc1-n1c(=O)c2nccn2c2cc(F)c(Br)cc21` [Example 77, 7-bromo-8-fluoro-5-(2-methylpyridin-3-yl)imidazo[1,2-a]quinoxalin-4(5H)-one] yielded an IC50 (MAT2A) of 1 to 100 nM, an IC50 [1] of 1 to 100 nM and an IC50 [2] of 1000 to 10000 nM.

With `Cc1cc2c(cc1Br)n(-c1cccnc1C)c(=O)c1nccn12` [Example 78, 7-bromo-8-methyl-5-(2-methylpyridin-3-yl)imidazo[1,2-a]quinoxalin-4(5H)-one] the IC50 (MAT2A) was 1 to 100 nM, the IC50 [1] was 1 to 100 nM and the IC50 [2] was greater than 10000 nM.

Compound `Cc1ncccc1-n1c(=O)c2nccn2c2cc(Cl)c(Br)cc21` [Example 79, 7-bromo-8-chloro-5-(2-methylpyridin-3-yl)imidazo[1,2-a]quinoxalin-4(5H)-one] has an IC50 (MAT2A) of 1 to 100 nM, an IC50 [1] of 1 to 100 nM and an IC50 [2] of 1000 to 10000 nM.

With `Cc1cc2c(cc1Br)n(-c1cccnc1C)c(=O)c1ncc(C)n12` [Example 84, 7-bromo-1,8-dimethyl-5-(2-methylpyridin-3-yl)imidazo[1,2-a]quinoxalin-4(5H)-one] the IC50 (MAT2A) was 100 to 1000 nM, the IC50 [1] was 1 to 100 nM and the IC50 [2] was greater than 10000 nM.

In the case of `Cc1ncccc1-n1c(=O)c2ncc(C)n2c2c(Br)c(C)c(Br)cc21` [Example 85, 7,9-dibromo-1,8-dimethyl-5-(2-methylpyridin-3-yl)imidazo[1,2-a]quinoxalin-4(5H)-one], the IC50 (MAT2A) is reported as 100 to 1000 nM, the IC50 [1] is reported as 1 to 100 nM and the IC50 [2] is reported as greater than 10000 nM.

For `Cc1ncccc1-n1c(=O)c2ncc(C)n2c2cc(Cl)c(Br)cc21` [Example 86, 7-bromo-8-chloro-1-methyl-5-(2-methylpyridin-3-yl)imidazo[1,2-a]quinoxalin-4(5H)-one], the IC50 (MAT2A) was 100 to 1000 nM, the IC50 [1] was 100 to 1000 nM and the IC50 [2] was greater than 10000 nM.

Work on `O=c1c2nccn2c2cc(Cl)c(Br)cc2n1-c1cccnc1C1CC1` [Example 87, 7-bromo-8-chloro-5-(2-cyclopropylpyridin-3-yl)imidazo[1,2-a]quinoxalin-4(5H)-one] yielded an IC50 (MAT2A) of 1 to 100 nM, an IC50 [1] of 1 to 100 nM and an IC50 [2] greater than 10000 nM.

In the case of `Cc1ncccc1-n1c(=O)c2ncc(Br)n2c2cc(Cl)c(Br)cc21` [Example 88, 1,7-dibromo-8-chloro-5-(2-methylpyridin-3-yl)imidazo[1,2-a]quinoxalin-4(5H)-one], the IC50 (MAT2A) is reported as 100 to 1000 nM, the IC50 [1] is reported as 100 to 1000 nM and the IC50 [2] is reported as greater than 10000 nM.

`Cc1ncccc1-n1c(=O)c2ncc(Cl)n2c2cc(Cl)c(Br)cc21` [Example 89, 7-bromo-1,8-dichloro-5-(2-methylpyridin-3-yl)imidazo[1,2-a]quinoxalin-4(5H)-one] showed an IC50 (MAT2A) of 100 to 1000 nM, an IC50 [1] of 100 to 1000 nM and an IC50 [2] greater than 10000 nM.

`Cc1cc2c(cc1Br)n(-c1cccnc1Cl)c(=O)c1nccn12` [Example 91, 7-bromo-5-(2-chloropyridin-3-yl)-8-methylimidazo[1,2-a]quinoxalin-4(5H)-one] gave an IC50 (MAT2A) of 1 to 100 nM, an IC50 [1] of 1 to 100 nM and an IC50 [2] greater than 10000 nM.

With `Cc1ncccc1-n1c(=O)c2nc(Br)c(C)n2c2cc(Cl)c(Br)cc21` [Example 92, 2,7-dibromo-8-chloro-1-methyl-5-(2-methylpyridin-3-yl)imidazo[1,2-a]quinoxalin-4(5H)-one] the IC50 (MAT2A) was 100 to 1000 nM, the IC50 [1] was greater than 10000 nM and the IC50 [2] was greater than 10000 nM.

In the case of `Cc1cc2c(cc1C(F)(F)F)n(-c1cccnc1C)c(=O)c1nccn12` [Example 93, 8-methyl-5-(2-methylpyridin-3-yl)-7-(trifluoromethyl)imidazo[1,2-a]quinoxalin4(5H)-one], the IC50 (MAT2A) is reported as 1 to 100 nM, the IC50 [1] is reported as 1 to 100 nM and the IC50 [2] is reported as greater than 10000 nM.

`Cc1ncccc1-n1c(=O)c2nccn2c2cc(Cl)c(C(F)(F)F)cc21` [Example 96, 8-chloro-5-(2-methylpyridin-3-yl)-7-(trifluoromethyl)imidazo[1,2-a]quinoxalin4(5H)-one] showed an IC50 (MAT2A) of 1 to 100 nM, an IC50 [1] of 1 to 100 nM and an IC50 [2] greater than 10000 nM.

`Cc1ncccc1-n1c(=O)c2ncc(C)n2c2cc(Cl)c(C(F)(F)F)cc21` [Example 99, 8-chloro-1-methyl-5-(2-methylpyridin-3-yl)-7-(trifluoromethyl)imidazo[1,2-a]quinoxalin-4(5H)-one] was tested, and the IC50 (MAT2A) was 1 to 100 nM, the IC50 [1] was 1 to 100 nM and the IC50 [2] was greater than 10000 nM.

Work on `Cc1ncccc1-n1c(=O)c2nc(N(C)C)c(C)n2c2cc(Cl)c(C(F)(F)F)cc21` [Example 100, 8-chloro-2-(dimethylamino)-1-methyl-5-(2-methylpyridin-3-yl)-7-(trifluoromethyl)imidazo[1,2-a]quinoxalin-4(5H)-one] yielded an IC50 (MAT2A) of 100 to 1000 nM, an IC50 [1] of 100 to 1000 nM and an IC50 [2] greater than 10000 nM.

In the case of `Cc1ncccc1-n1c(=O)c2nccn2c2c(F)cc(Cl)cc21` [Example 101, 7-chloro-9-fluoro-5-(2-methylpyridin-3-yl)imidazo[1,2-a]quinoxalin-4(5H)-one], the IC50 (MAT2A) is reported as 1 to 100 nM, the IC50 [1] is reported as 1 to 100 nM and the IC50 [2] is reported as greater than 10000 nM.

Compound `COc1cc(Cl)cc2c1n1ccnc1c(=O)n2-c1cccnc1C` [Example 102, 7-chloro-9-methoxy-5-(2-methylpyridin-3-yl)imidazo[1,2-a]quinoxalin-4(5H)-one] has an IC50 (MAT2A) of 1 to 100 nM, an IC50 [1] of 1 to 100 nM and an IC50 [2] greater than 10000 nM.

`Cc1ncccc1-n1c(=O)c2nccn2c2c(OCC3CC3)cc(Cl)cc21` [Example 103, 7-chloro-9-(cyclopropylmethoxy)-5-(2-methylpyridin-3-yl)imidazo[1,2-a]quinoxalin-4(5H)-one] was tested, and the IC50 (MAT2A) was 1 to 100 nM, the IC50 [1] was 1 to 100 nM and the IC50 [2] was greater than 10000 nM.

In the case of `CNc1cc(Cl)cc2c1n1ccnc1c(=O)n2-c1cccnc1C` [Example 105, 7-chloro-9-(methylamino)-5-(2-methylpyridin-3-yl)imidazo[1,2-a]quinoxalin-4(5H)-one], the IC50 (MAT2A) is reported as 1 to 100 nM, the IC50 [1] is reported as 1 to 100 nM and the IC50 [2] is reported as greater than 10000 nM.
